Laboratory results: patent publication US11878975B2, “Substituted indole compounds useful as TLR inhibitors” (BRISTOL-MYERS SQUIBB COMPANY, priority 2017, dated 2024)

Key:
Assay type in all cases: cell-based
human TLR7 = biological target: T1, human TLR7 (Homo sapiens, UniProt Q9NYK1); assay: TLR7 inhibition reporter assay (HEK-Blue cells, SEAP reporter, gardiquimod stimulation); settings: HEK-Blue cells overexpressing human TLR7, SEAP reporter, gardiquimod 7.5 μM
T1 construct: host or cells: HEK-Blue cells
T1 sequence (Q9NYK1 27-1049): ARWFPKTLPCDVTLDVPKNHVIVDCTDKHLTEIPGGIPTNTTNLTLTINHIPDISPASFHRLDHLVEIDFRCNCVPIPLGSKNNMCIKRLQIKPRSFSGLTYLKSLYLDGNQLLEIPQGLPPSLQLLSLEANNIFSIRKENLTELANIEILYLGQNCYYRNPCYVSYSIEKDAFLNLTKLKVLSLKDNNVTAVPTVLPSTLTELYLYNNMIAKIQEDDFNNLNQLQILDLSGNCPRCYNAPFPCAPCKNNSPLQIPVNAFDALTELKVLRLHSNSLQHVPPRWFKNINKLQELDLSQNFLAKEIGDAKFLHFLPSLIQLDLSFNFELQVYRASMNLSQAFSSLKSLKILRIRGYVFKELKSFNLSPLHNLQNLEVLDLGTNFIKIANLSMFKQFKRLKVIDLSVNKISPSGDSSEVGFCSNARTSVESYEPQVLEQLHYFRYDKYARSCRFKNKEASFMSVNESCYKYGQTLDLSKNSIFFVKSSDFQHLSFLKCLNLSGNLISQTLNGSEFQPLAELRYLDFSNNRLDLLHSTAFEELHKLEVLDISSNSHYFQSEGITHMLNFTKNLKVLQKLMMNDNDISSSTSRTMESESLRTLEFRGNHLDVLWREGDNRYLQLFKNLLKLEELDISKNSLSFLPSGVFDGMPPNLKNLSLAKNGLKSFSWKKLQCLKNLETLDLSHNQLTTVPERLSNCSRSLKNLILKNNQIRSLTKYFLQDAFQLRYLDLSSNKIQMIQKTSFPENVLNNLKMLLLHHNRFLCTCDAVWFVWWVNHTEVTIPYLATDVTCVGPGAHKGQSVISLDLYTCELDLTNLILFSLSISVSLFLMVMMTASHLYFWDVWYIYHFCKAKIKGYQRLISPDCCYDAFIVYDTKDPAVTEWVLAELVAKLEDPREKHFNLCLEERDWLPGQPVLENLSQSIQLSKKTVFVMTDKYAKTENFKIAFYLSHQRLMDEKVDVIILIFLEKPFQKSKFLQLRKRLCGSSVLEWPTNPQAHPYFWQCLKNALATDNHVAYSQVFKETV
How it was run: (§1)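 Dose range 0.05 nM–50 μM; 30 min preincubation, RT. Agonists: TLR7 gardiquimod 7.5 μM, TLR8 R848 15.9 μM, TLR9 ODN2006 5 nM. 22 h, 37 °C, 5% CO2. SEAP (IFN-β minimal promoter with NF-κB/AP-1 sites) via colorimetric detection medium; % inhibition vs agonist+DMSO and reference-inhibitor wells.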

human TLR8 = biological target: T2, human TLR8 (Homo sapiens, UniProt Q9NR97); assay: TLR8 inhibition reporter assay (HEK-Blue cells, SEAP reporter, R848 stimulation); settings: HEK-Blue cells overexpressing human TLR8, SEAP reporter, R848 15.9 μM
T2 construct: host or cells: HEK-Blue cells
T2 sequence (Q9NR97 27-1041): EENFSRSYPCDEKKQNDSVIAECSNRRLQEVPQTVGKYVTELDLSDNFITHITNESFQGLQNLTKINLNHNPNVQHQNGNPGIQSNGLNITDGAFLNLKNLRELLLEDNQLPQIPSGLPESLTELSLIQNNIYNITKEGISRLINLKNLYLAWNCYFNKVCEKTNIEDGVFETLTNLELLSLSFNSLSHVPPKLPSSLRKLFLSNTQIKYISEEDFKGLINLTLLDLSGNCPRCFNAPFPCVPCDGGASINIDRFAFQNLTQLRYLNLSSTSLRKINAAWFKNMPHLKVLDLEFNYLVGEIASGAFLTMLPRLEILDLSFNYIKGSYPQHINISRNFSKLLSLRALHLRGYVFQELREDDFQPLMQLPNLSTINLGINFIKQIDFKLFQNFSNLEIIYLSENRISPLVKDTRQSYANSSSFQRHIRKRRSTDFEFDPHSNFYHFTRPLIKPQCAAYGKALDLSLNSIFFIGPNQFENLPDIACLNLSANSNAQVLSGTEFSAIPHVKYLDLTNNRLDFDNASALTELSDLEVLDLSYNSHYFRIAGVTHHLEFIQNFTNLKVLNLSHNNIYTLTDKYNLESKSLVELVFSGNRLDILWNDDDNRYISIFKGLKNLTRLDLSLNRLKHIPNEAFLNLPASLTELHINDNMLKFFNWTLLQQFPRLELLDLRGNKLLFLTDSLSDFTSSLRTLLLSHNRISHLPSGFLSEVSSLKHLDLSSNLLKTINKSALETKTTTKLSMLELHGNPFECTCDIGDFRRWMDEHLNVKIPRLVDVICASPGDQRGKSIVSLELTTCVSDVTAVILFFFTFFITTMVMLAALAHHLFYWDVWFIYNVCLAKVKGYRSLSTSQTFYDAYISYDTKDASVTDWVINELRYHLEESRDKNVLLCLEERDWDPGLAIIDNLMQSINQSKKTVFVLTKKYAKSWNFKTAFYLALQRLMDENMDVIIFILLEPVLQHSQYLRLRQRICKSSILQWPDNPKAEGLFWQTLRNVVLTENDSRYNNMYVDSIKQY
How it was run: as §1

human TLR9 = biological target: T3, human TLR9 (Homo sapiens, UniProt Q9NR96); assay: TLR9 inhibition reporter assay (HEK-Blue cells, SEAP reporter, ODN2006 stimulation); settings: HEK-Blue cells overexpressing human TLR9, SEAP reporter, ODN2006 5 nM
T3 construct: host or cells: HEK-Blue cells
T3 sequence (Q9NR96 26-1032): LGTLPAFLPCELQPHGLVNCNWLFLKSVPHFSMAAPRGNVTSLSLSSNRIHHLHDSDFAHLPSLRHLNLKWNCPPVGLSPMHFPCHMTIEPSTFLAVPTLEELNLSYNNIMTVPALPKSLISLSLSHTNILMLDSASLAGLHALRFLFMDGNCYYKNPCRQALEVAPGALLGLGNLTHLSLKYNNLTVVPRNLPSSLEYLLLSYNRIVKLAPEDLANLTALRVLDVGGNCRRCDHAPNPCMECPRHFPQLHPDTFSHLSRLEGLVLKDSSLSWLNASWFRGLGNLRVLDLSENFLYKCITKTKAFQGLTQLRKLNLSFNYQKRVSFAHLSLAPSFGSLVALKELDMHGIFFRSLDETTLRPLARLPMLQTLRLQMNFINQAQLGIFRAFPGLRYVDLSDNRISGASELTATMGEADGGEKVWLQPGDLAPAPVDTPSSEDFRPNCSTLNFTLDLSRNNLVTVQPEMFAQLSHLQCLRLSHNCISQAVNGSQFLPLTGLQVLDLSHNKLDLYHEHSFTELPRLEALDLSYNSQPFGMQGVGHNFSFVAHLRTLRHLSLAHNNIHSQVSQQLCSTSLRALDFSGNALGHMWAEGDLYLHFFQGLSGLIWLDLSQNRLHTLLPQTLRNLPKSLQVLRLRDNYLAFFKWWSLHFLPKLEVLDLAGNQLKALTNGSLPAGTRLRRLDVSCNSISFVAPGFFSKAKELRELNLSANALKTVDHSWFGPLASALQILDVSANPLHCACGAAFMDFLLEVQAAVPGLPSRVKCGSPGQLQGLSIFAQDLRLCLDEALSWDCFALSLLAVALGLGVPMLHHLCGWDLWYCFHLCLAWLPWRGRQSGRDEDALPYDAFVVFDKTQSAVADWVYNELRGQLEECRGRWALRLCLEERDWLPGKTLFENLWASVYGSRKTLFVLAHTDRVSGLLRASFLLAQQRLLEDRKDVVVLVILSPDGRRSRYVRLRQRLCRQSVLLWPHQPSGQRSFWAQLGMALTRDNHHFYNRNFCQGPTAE
How it was run: as §1

| SMILES | IC50 (human TLR7) [nM] | IC50 (human TLR8) [nM] | IC50 (human TLR9) [nM] |
| --- | --- | --- | --- |
| Cc1cc(-c2[nH]c3ccc(CCN4CCCC(F)C4)cc3c2C(C)C)cn(C)c1=O (stereo not drawn) [Example 406] | 14 | 3.2 | 8810 |
| Cc1c(-c2[nH]c3ccc(C4CCCN(CC(=O)N(C)C)C4)cc3c2C(C)C)cn2ncnc2c1C (stereo not drawn) [Example 226] | 17 | 7.4 | 9770 |
| Cc1cc(-c2[nH]c3ccc(CCN4CCS(=O)(=O)CC4)cc3c2C(C)C)cc(C)n1 [Example 401] | 27 | 86 | 3430 |
| Cc1c(-c2[nH]c3ccc(C4CC(NCCS(C)(=O)=O)C4)cc3c2C(C)C)cn(C)c(=O)c1C (stereo not drawn) [Example 495] | 38 | 1.3 | 20700 |
| Cc1cc(-c2[nH]c3ccc(C4CCCNC4)cc3c2C(C)C)ccn1 (stereo not drawn) [Example 185] | 18 | 1.9 | 1240 |
| CNCCN1CCCC(c2ccc3[nH]c(-c4ccnc(C)c4)c(C(C)C)c3c2)C1 (stereo not drawn) [Example 255] | 19 | 5.2 | 157 |
| Cc1c(-c2[nH]c3ccc(CC4CN(CC(=O)N(C)C)C4)cc3c2C(C)C)cn2ncnc2c1C [Example 400] | 18 | 5.1 | 2820 |
| COc1cc(-c2[nH]c3ccc(C4CN(CC(=O)N(C)C)C4)cc3c2C(C)C)cn2ncnc12 [Example 262] | 618 | 66 | 22900 |
| Cc1c(-c2[nH]c3ccc(C4CC(N(C)CCS(C)(=O)=O)C4)cc3c2C(C)C)cn2ncnc2c1C (stereo not drawn) [Example 586] | 13 | 3.8 | 44000 |

Stronger by IC50 (human TLR7), values ahead:

| IC50 (human TLR7) [nM] | IC50 (human TLR8) [nM] | IC50 (human TLR9) [nM] | SMILES |
| --- | --- | --- | --- |
| 6 | 36 | > 50000 | Cc1cc(-c2[nH]c3ccc(C4CN(C(=O)CN(C)C)C(C)(C)CO4)cc3c2C(C)C)cn2ncnc12 (single isomer, unassigned) [Example 373, 2-(dimethylamino)-1-(2-(3-isopropyl-2-(8-methyl-[1,2,4]triazolo[1,5-a]pyridin-6-yl)-1H-indol-5-yl)-5,5-dimethylmorpholino)ethanone] |
| 3 | 5.7 | 7370 | COc1cc(-c2[nH]c3ccc(C4CCCN(CC(N)=O)C4)cc3c2C(C)C)cn2ncnc12 (stereo not drawn) [Example 234] |
| 0.26 | 1.8 | 501 | Cc1cc(-c2[nH]c3ccc(C4CCC(NC5COC5)CC4)cc3c2C(C)C)cc(C)n1 (stereo not drawn) [Example 60] |
| 5 | 12 | 729 | Cc1cc(-c2[nH]c3ccc(C4CN(C(=O)CN(C)C)CCO4)cc3c2C(C)C)cc(C)n1 (stereo not drawn) [Example 335] |
| 1 | 5.3 | 2370 | COc1cc(-c2[nH]c3ccc(C4CCCNC4)cc3c2C(C)C)cn2ncnc12 (single isomer, unassigned) [Example 182] |
| 0.35 | 0.44 | 1680 | COc1cc(-c2[nH]c3ccc(C4CCC(N(C)CCS(C)(=O)=O)CC4)cc3c2C(C)C)cn2ncnc12 (stereo not drawn) [Example 150, 4-(3-isopropyl-2-(8-methoxy-[1,2,4]triazolo[1,5-a]pyridin-6-yl)-1H-indol-5-yl)-N-methyl-N-(2-(methylsulfonyl)ethyl)cyclohexanamine] |
| 6 | 43 | > 50000 | COCCC(=O)N1CCCC(c2ccc3[nH]c(-c4cc(C)nc(C)c4)c(C(C)C)c3c2)C1 (stereo not drawn) [Example 208] |
| 0.48 | 5.1 | 2720 | Cc1c(-c2[nH]c3ccc(C4CCC(NC5COC5)CC4)cc3c2C(C)C)cn2cnnc2c1C (stereo not drawn) [Example 523] |
| 11 | 9.8 | 1960 | Cc1c(-c2[nH]c3ccc(CC4CNC4)cc3c2C(C)C)cn2ncnc2c1C [Example 399, 5-[(azetidin-3-yl)methyl]-2-{7,8-dimethyl-[1,2,4]triazolo[1,5-a]pyridin-6-yl}-3-(propan-2-yl)-1H-indole] |
| 2 | 1.2 | 2330 | COc1cc(-c2[nH]c3ccc(C4CCCN(CC(C)(C)O)C4)cc3c2C(C)C)cn2ncnc12 (stereo not drawn) [Example 249] |
| 2 | 4.5 | 277 | CNC(=O)CNC1CCC(c2ccc3[nH]c(-c4cc(C)nc(C)c4)c(C(C)C)c3c2)CC1 (single isomer, unassigned) [Example 180, 2-((4-(2-(2,6-dimethylpyridin-4-yl)-3-isopropyl-1H-indol-5-yl)cyclohexyl)amino)-N-methylacetamide] |
| 3 | 15 | 16300 | Cc1c(-c2[nH]c3ccc(C4CC5CN(CC#N)CC5C4)cc3c2C(C)C)cn2ncnc2c1C (stereo not drawn) [Example 512] |
| 1 | 3.4 | 4140 | Cc1c(-c2[nH]c3ccc(C4CN(C(=O)CN(C)C)CCO4)cc3c2C(C)C)cn2ncnc2c1C (stereo not drawn) [Example 329] |
| 0.52 | 1 | > 50000 | Cc1c(-c2[nH]c3ccc(C4CCC(NC(=O)CN(C)C)CC4)cc3c2C(C)C)cn2ncnc2c1C (stereo not drawn) [Example 123] |
